This note sets out measurements from ChEMBL document CHEMBL3507680, “University of Dundee, Gates Library screen for HepG2 cell viability”.

The structures appear in SMILES notation.

A short description of the data set: Human HepG2 cell viability assay in 384 well format. The format is toxicity, cell-based. Further details: dose 125 nL, time 70.5 hour; concentration not given beside the values. Particulars: HepG2 cells, read-out: Inhibition.

For the compound `O=S(=O)(CCN1CCN(c2ccccc2O)CC1)c1ccc(Cl)cc1`, the cytotoxicity at 70.5 h was -14.3%.
On to `O=C(COC1CCCC1)N1CCC(C(O)c2ccc(F)cc2)CC1` (stereo not drawn), for which the cytotoxicity at 70.5 h was -8.09%.
To `Cc1ccc(C(=O)NCCS(=O)(=O)N2CCSCC2)o1` belongs 3.19%; to `Cc1ccccc1C1(CNCc2cnc(N3CCOCC3)nc2)CC1`, 5.8%.
To `Cc1ncccc1C(=O)NCC(C)Oc1ccc(F)cc1` (stereo not drawn) belongs 24.4%; to `CCc1ccc(C(COC)NC(=O)c2ccsc2)o1` (stereo not drawn), -3.72%.
Take `Cn1c(C2CC2)nc2c1CCN(Cc1nc3ccccc3s1)C2`: the cytotoxicity at 70.5 h came to 23.2%.
Turning to `O=C1N(CC2CC2)C(c2cncs2)NC12CCCC2` (stereo not drawn), the cytotoxicity at 70.5 h is -4.01%.
As for `COc1ccccc1N1CCN(CC(=O)NC(C)c2ccco2)CC1` (stereo not drawn), the cytotoxicity at 70.5 h is -5.63%.
Regarding `O=C1CCCN1Cc1ccc(C(=O)N2CCCC2c2cccs2)cc1` (stereo not drawn), the cytotoxicity at 70.5 h is -6.75%.
The same measure for `CC(NC(=O)CN1CCN(c2ccncc2Cl)CC1)c1ccco1` (stereo not drawn): -7.35%; for `CCc1ccc(C(COC)NC(=O)c2ccc(F)c(NC(C)=O)c2)o1` (stereo not drawn): 23.6%.
`CCN(Cc1ccco1)C(C)c1nc(C)no1` (stereo not drawn): the cytotoxicity at 70.5 h was -2.63%.
The same measure for `CCN(Cc1ccco1)C(C)c1nc(C(C)C)no1` (stereo not drawn): -3.54%.
On to `COc1ccnc(NC(Cc2ccccc2)C(N)=O)n1` (stereo not drawn), for which the cytotoxicity at 70.5 h is -3.74%.
To `CCOc1ccc(CNC(C)c2c(C)nn(C)c2C)cc1` (stereo not drawn) belongs 20.4%; to `Cc1nc(CN2CCCN(CCCc3ccccc3)CC2)no1`, -7.12%; to `CC(c1ccc(S(C)(=O)=O)cc1)N(C)C(=O)c1ccccc1I` (stereo not drawn), -4.13%.
The same measure for `CCOc1ccccc1C(=O)N(C)C(C)c1ccc(S(C)(=O)=O)cc1` (stereo not drawn): -6.38%; for `Cc1ccc(N(CC(=O)N2CCCCC2)C(=O)C2COCCO2)cc1` (stereo not drawn): -2.98%; for `CC1CCCN(CCCNC(=O)Cc2csc(-c3ccoc3)n2)C1` (stereo not drawn): -3.83%.
The same measure for `Cc1nc(CN2CCN(CCCc3nc4ccccc4o3)CC2)no1`: -0.419%.
As for `Cc1nn(C)c(C)c1C(C)NCc1ccc(OC(C)C)cc1` (stereo not drawn), the cytotoxicity at 70.5 h is -1.94%.
The same measure for `Cc1nc(CN2CCN(CCCc3ccccc3)CC2)no1`: 1.83%; for `Cc1cccc(N(CC(=O)N2CCCCC2)C(=O)C2CCCO2)c1` (stereo not drawn): 2.3%; for `CSCc1cc(F)ccc1CNC(=O)N1CCCC1`: -4.58%.
The same measure for `O=C(c1csc(-c2ccco2)n1)N1CCOc2ncccc21`: 0.101%; for `COc1cccc(-c2cnc(CNC(C)(C)c3nc(C)cs3)o2)c1`: -4.32%; for `Cc1noc(C(C)N(C)Cc2ccco2)n1` (stereo not drawn): -6.09%.
For the compound `CCCc1noc(C(C)N(CC)Cc2ccco2)n1` (stereo not drawn), the cytotoxicity at 70.5 h turned out to be 7.58%.
To `CCN(Cc1ccco1)C(C)c1nc(C(C)(C)C)no1` (stereo not drawn) belongs -3.44%; to `Cc1cscc1-c1nc(C2CCOC2)no1` (stereo not drawn), -5.31%.
To `COCCSCC(=O)NCc1ccc(N(C)C)nc1` belongs -4.15%; to `CSCc1cc(F)ccc1CNC(=O)N1CCC[C@@H]1CO`, -4.06%; to `CSCc1cc(F)ccc1CNC(=O)N1CCOCC1`, -10.7%.
The same measure for `CSCc1cc(F)ccc1CNC(=O)N1CCCC(CO)C1` (stereo not drawn): -7.73%; for `CCc1nc(C)c(C(C)N(C)CCc2ccccn2)s1` (stereo not drawn): 9.61%; for `COc1ccc(CN(C(=O)C(C)SC)c2cnn(C)c2)c(OC)c1` (stereo not drawn): 1.09%.
In the case of `COc1ccc(S(=O)(=O)C(F)(F)F)cc1NC(=O)CSCC#N`, the cytotoxicity at 70.5 h was 1.04%.
The same measure for `O=C(C1CCCO1)N1CCC(c2nc(-c3ccccc3)n[nH]2)CC1` (stereo not drawn): 1.35%.
To `Cc1ccccc1CC(C)(C)NC(=O)COc1cccc(C(N)=O)c1` belongs -0.108%; to `CCOc1ccccc1C(=O)N1CCn2c(nnc2C(F)(F)F)C1`, -1.86%; to `COc1ccc(CN(C(=O)C(C)C)c2cnn(C)c2)c(OC)c1`, -1.23%.
The same measure for `Cc1nccn1-c1ccc(C(C)NCc2ncc[nH]2)cc1` (stereo not drawn): 12.6%.
As for `FCCOc1cccc(NCc2c[nH]nc2-c2cccnc2)c1`, the cytotoxicity at 70.5 h is -3.33%.
To `CCN(CC)S(=O)(=O)c1ccc(OC)c(NC(=O)CSC)c1` belongs 12.2%; to `CC1CCCN(CCCNC(=O)c2cn(C)nc2-c2cccnc2)C1` (stereo not drawn), -2.34%.
The same measure for `COCC(=O)NS(=O)(=O)c1ccc(F)c(F)c1`: -2.65%; for `CCCN1CCCC1c1nc(Cc2ccc(F)cc2)no1` (stereo not drawn): 15.1%; for `COc1cc(C)sc1C(=O)NCCC(=O)N(C)Cc1ccccc1`: -3.28%.
To `CC(=O)N1CCCN(S(=O)(=O)c2cc3ccccc3o2)CC1` belongs 0.284%; to `Cn1cc(C(=O)NCCCN2CCCCCC2=O)c(-c2cccnc2)n1`, 11%; to `COc1cc(C)sc1C(=O)NCCC(=O)N(C)c1ccccc1`, -2.86%.
As to `Cc1noc(C)c1CNC(C)c1ccc(S(=O)(=O)N(C)C)cc1` (stereo not drawn), the cytotoxicity at 70.5 h is -2.42%.
The same measure for `CCCNC(=O)CN1CCCC1c1nc(Cc2ccc(F)cc2)no1` (stereo not drawn): -4.46%; for `O=C(NCCc1cccnc1)NC1CCOC2(CCCCC2)C1` (stereo not drawn): 17.8%; for `Cc1cc(C(=O)Nc2ccc(CN3CCOCC3)cn2)n(C)n1`: -5.67%.
The same measure for `Cc1nc(CNCC2CCCN(C(=O)OC(C)(C)C)C2)cs1` (stereo not drawn): 27.5%.
The same measure for `COc1ccc(OCCNC(=O)c2ccc3c(=O)[nH][nH]c(=O)c3c2)cc1`: -0.259%; for `O=C(NC1CCS(=O)(=O)c2ccccc21)c1cccs1` (stereo not drawn): -7.77%.
On to `CC(C)(CNC(=O)C1CCCN1S(C)(=O)=O)N1CCOCC1` (stereo not drawn), for which the cytotoxicity at 70.5 h was -11%.
To `CCC(=O)Nc1ncn(Cc2cccnc2)n1` belongs 15.8%; to `CCOCCCC(=O)NCc1ccc(N2CCCCC2)cc1`, -11.1%.
To `CC(C)CCn1ccc(NC(=O)N2CCCC2CN2CCOCC2)n1` (stereo not drawn) belongs -7.64%; to `O=C(COc1ccc(-c2ccccc2)nc1)NCC1CC1`, -5.26%; to `CNC(=O)COc1ccc(-c2ccccc2)nc1`, -7.98%.
The same measure for `CC(C)c1nnc2n1CCN(c1nn3cc(C(C)(C)C)nc3s1)C2`: -8.04%; for `Cc1ccc(C2CN(c3nnc(C(F)F)s3)CCO2)c(C)c1` (stereo not drawn): -4.44%.
As to `CN(C)C(=O)Cn1cc(C(=O)NCCc2ccc(Cl)cc2Cl)nn1`, the cytotoxicity at 70.5 h was -0.867%.
To `Cc1c(C(=O)NCCC(=O)N2CCOCC2)sc2ccc(F)cc12` belongs 1.17%; to `N#Cc1cccc(OCCN2CCCC2C(=O)NCC(F)(F)F)c1` (stereo not drawn), -0.526%; to `Cc1nc(C(=O)N(C)C)nn1-c1ccccc1C(C)C`, 0.366%.
The same measure for `CC(C)c1nc(CN2CCN(C(=O)CC3CCCCC3)CC2)no1`: 7.95%.
The same measure for `Cc1ccc(C)c(CC(=O)NC2(C#N)CCOCC2)c1`: 1.6%.
Regarding `C1=C(c2c[nH]c3ncccc23)CCN(Cc2nnc(C3CC3)o2)C1`, the cytotoxicity at 70.5 h is 12.3%.
As for `CC(C)CNC(=O)CNC(=O)NC(c1nccs1)C1CC1` (stereo not drawn), the cytotoxicity at 70.5 h is 4.02%.
For the compound `CC(C)(C)C(=O)NCc1nccn1CCc1ccccc1`, the cytotoxicity at 70.5 h was -5.7%.
To `CC(C)(O)CNC(=O)NCc1nccn1CCc1ccccc1` belongs -1.1%; to `Cc1noc(CN2CC=C(c3c[nH]c4ncccc34)CC2)n1`, 20.4%; to `CN(C(=O)NCc1nccn1CCc1ccccc1)C1CCC1`, 1.68%.
To `O=C(NCc1nccn1CCc1ccccc1)NCC1(O)CCC1` belongs 1.18%; to `Cc1noc(CN(CCc2ccco2)Cc2cccc(C#N)c2)n1`, 2.9%; to `Cc1noc(CN(CCc2cccs2)Cc2cccc(C#N)c2)n1`, 0.848%.
On to `Cc1nc(C(=O)N(C)CC2CCCO2)nn1-c1ccccc1C(C)C` (stereo not drawn), for which the cytotoxicity at 70.5 h is -5.46%.
Regarding `CC(C)(C)OC(=O)N1CCC(C(=O)NCc2ccccc2)C1` (stereo not drawn), the cytotoxicity at 70.5 h is 7.59%.
Regarding `CCN(CC1CCOC1)C(=O)c1ccc(N(C)C)cc1F` (stereo not drawn), the cytotoxicity at 70.5 h was -1.53%.
In the case of `N#Cc1cccc(OCCN2CCCC2C(=O)Nc2nccs2)c1` (stereo not drawn), the cytotoxicity at 70.5 h stood at 29%.
As to `c1ccc(-c2nc(CNC3CCCN(c4cccnn4)C3)no2)cc1` (stereo not drawn), the cytotoxicity at 70.5 h stood at 18.6%.
In the case of `NC(=O)c1ccc(N2CCCCC2)c(NC(=O)c2ccc(F)cc2F)c1`, the cytotoxicity at 70.5 h is 3.5%.
To `O=C(NC1CC1)C1CCN(Cn2nc(-c3ccccc3)oc2=O)CC1` belongs 25.1%; to `NC(=O)c1ccc(N2CCCCC2)c(NC(=O)c2cc(Br)ccc2Cl)c1`, 16.1%.
To `CCCNC(=O)Cc1c(C)nc2c(c1C)c(=O)[nH]n2C` belongs 1.36%; to `NC(=O)C1CCN(Cn2nc(-c3ccc(F)cc3)oc2=O)C1` (stereo not drawn), -7.79%; to `CC(NC(=O)NCc1cscn1)c1ccc(N2CCOCC2)cc1` (stereo not drawn), -0.548%.
The same measure for `CCc1nc(CN2CCCN(c3ncnc4ccsc34)CC2)no1`: 8.93%.
On to `CCc1nc(CN2CCCN(c3cnc4ccccc4n3)CC2)no1`, for which the cytotoxicity at 70.5 h was -2.11%.
As to `CC(C)(C)c1nc(CNC2CCCN(c3cccnn3)C2)no1` (stereo not drawn), the cytotoxicity at 70.5 h is -0.0267%.
The same measure for `c1cnnc(N2CCCC(NCc3nc(-c4cccs4)no3)C2)c1` (stereo not drawn): -6.61%; for `NS(=O)(=O)CCNC(=O)C1(c2ccccc2)CC1`: -1.21%.
The same measure for `Cc1cc(Cl)ccc1S(=O)(=O)NCC(C)N1CCN(C)CC1` (stereo not drawn): -0.894%; for `Cc1ccc(-c2ccc(C(=O)NCC(N)=O)c(F)c2)cc1`: 1.46%.
To `Cc1nc(CN2CCN(c3ncnc4ccccc34)CC2)no1` belongs 4.67%.
Regarding `Clc1ccc(C2(CNC3=NCCN3)CCCCC2)cc1`, the cytotoxicity at 70.5 h was determined as 26.8%.
